The text below walks through data of US20170049786A1, “MTOR PATHWAY INHIBITORS FOR TREATING OCULAR DISORDERS” (Santen Pharmaceutical Co., Ltd., priority 2009, published 2017).

In series [1] the test system is Human umbilical vein endothelial cells (HUVEC). In words: Inhibition of VEGF-induced proliferation, BrdU incorporation. Type of series: cell-based. As to conditions: for IC50: Homo sapiens, 12.5 ng/mL VEGF. On the procedure:
The objective of this study was to evaluate the anti-proliferative effects of various therapeutic agents (everolimus, sirolimus, tacrolimus, temsirolimus, zotarolimus, PP242, PP30, Palomid 529, WYE-354, and KU-0063794) by measuring bromodeoxyuridine (BrdU) incorporation into cellular DNA. The therapeutic agents were dissolved directly into class A vials in less than 1% DMSO. Human umbilical vein endothelial cells (HUVEC) were obtained from Lonza (Catalog No. CC-2517). Vascular endothelial growth factor (VEGF) was obtained from R&D Systems (Catalog No. 293-VE-010). A BrdU Assay kit was obtained from Calbiochem (Catalog No. Q1A58). The inhibitory effect of rapamycin on HUVEC proliferation has been described (Kwon et al., Invest Opththamol Vis Sci, 46:454-4699, 2005).
Early passage HUVEC were plated at 2,000 cells/well in 96-well plates for 24 hours. The cells were then starved for 24 hours by replacing medium with medium lacking serum and HUVEC medium growth factors. After overnight starvation, wells were inoculated with (i) medium containing 2.5% serum and 12.5 ng/mL VEGF, (ii) medium with 12.5 ng/mL VEGF, (iii) medium with 2.5% serum or (iv) medium without serum or VEGF. Control compounds and test compounds were added at eight to eleven concentrations of each compound. All wells were set up in four replicates. BrdU was added to the medium 72 hours after feeding. After the overnight labeling, the cells were assayed according the manufacturers instructions and the plates were read at OD450. Average absorbance for replicate wells was used to calculate IC50 for the compounds of Table 72-1.
On the technique in general: Incorporation of labelled thymidine or its analogues reports DNA synthesis.

The conditions of series [2]: cited from earlier work.
Series [3] in a line: Solubility profiles of therapeutic agents (Table 71-1). As to conditions: for physical state when formulated in PEG400: 3% therapeutic agent and 97% PEG400.
Protocol: Various therapeutic agents (e.g., rapalogs and/or mTOR inhibitors) were formulated as liquid solutions or suspensions for ophthalmic administration by injection. The therapeutic agents of exemplary formulations were as follows: everolimus, sirolimus, temsirolimus, zotarolimus, PP242, PP30 and palomid 529.
Liquid formulations containing 3% therapeutic agent (everolimus, sirolimus, temsirolimus or zotarolimus) and 97% PEG400 were prepared.
The next series in a line: in vivo. As to conditions: rabbit. As for the experimental part:
Both eyes (or one eye depending on the study) of each animal received one or two drops (40 μl per drop) of the studied formulations using a calibrated pipette on day 0 (day of dosing).
For Tables 3-6, the solution of Example 46 (formulation #340) was administered two drops twice a day on both eyes, one time for Group I, two drops once a day on one eye, one time for Group II, and two drops once a day on both eyes for 6 days in Group III. In Group II, the right eye (OD) but not the left eye (OS) received eye drops. In a further study, one drop of the formulation #340 (40 μL containing 880 μg rapamycin) was administered on day zero.
For FIGS. 5 and 6, the aqueous rapamycin-containing formulations #329 and #330 of Table 1 were administered two drops once or twice a day for up to 28 days. For FIGS. 7 and 8, the aqueous rapamycin-containing formulations #331 and #332 of Table 1 were administered two drops twice a day for 6 days.
For FIG. 10A-B one drop of an aqueous or a non-aqueous formulation containing about 0.2% rapamycin were administered to both eyes of rabbit subjects once a day for six days (day 0 to day 6). As used herein, the terms “aqueous” and “hydrophilic” refer to formulations in which the dominant component is an aqueous compound such as water (e.g., formulations #342 and #342 of Table 1), while the terms “non-aqueous” and “lipophilic” refer to formulation in which the dominant component is a non-aqueous compound such as PEG 400 (e.g., formulations #344 and #345 of Table 1). Rapamycin concentrations in the cornea, retina choroid and blood were measured at day 7 and day 14.
For FIG. 11 one drop of a non-aqueous formulation containing about 0.2% rapamycin (e.g., formulations #344 or #345) was administered to both eyes of rabbit subjects once a day on day 0, 7, 14 and 21. Rapamycin concentrations in the cornea, retina choroid and aqueous humor were measured on days 3, 10, 17, 24 and 28.

Series [4] in a line: Pilot pharmacokinetic study, intravitreal injection of rapalog/mTOR inhibitor formulations; concentration in the vitreous (FIGS. 17, 19, 20). As to conditions: 330 mcg by intravitreal injection of 10 μl of 3% agent in 97% PEG400; FIG. 17.
Protocol: In a pilot pharmacokinetic study, 330 mcg of the therapeutic agent was administered to rabbits by intravitreal injection of a 10 μl volume.
In a pilot pharmacokinetic study, 220 mcg of the therapeutic agent was administered to rabbits by intravitreal injection of a 10 μl volume.
Series [5] relates to retinal and choroidal neovascularization (RNV and CNV). In words: Inhibition of retinal and choroidal neovascularization in vivo (subretinal […]/bFGF/VEGF model, fluorescein angiography). Details: species or system New Zealand white rabbits. Conditions: six microliter intravitreal dose of 2% agent in 4% ethanol, 94% PEG400 on Day 8; compared with 50 microliter AVASTIN (25 mg/ml). On the procedure: The objective of this study was to evaluate the effects of various therapeutic agents (everolimus, sirolimus, temsirolimus, and zotarolimus) on retinal and choroidal neovascularization (RNV and CNV) in a rabbit model (Qiu et al., Exp Eye Res, 83:141-152, 2006). Liquid formulations containing 2% (w/w) of the therapeutic agents were prepared in 4% (w/w) ethanol, and 94% (w/w) PEG400. As a positive control, a formulation containing 25 mg/ml AVASTIN was used. As a negative control, vehicle (4% ethanol, 96% PEG400) was used. Recombinant human basic fibroblast growth factor (bFGF) and vascular endothelial growth factor (VEGF) were obtained from R&D Systems. New Zealand white rabbits were used in this study.
On Day 1, the right eye of each animal received a subretinal injection of 10-20 μL of […] containing 10 μg/0.1 mL b-FGF and 2 μg/0.1 mL VEGF. […]-containing formulations are kept on ice until administered. Briefly, the conjunctiva was opened and a small slit in the sclera was made to expose the vitreous. A cannula connected to a tuberculin syringe was inserted into the subretinal space and the […]/growth factor combination was delivered. The scleral and conjunctival opening were closed with a 7-0 Vicryl suture. […]

Values joined by “and” are separate entries in the source; they are usually repeats but may differ in a detail not shown here. Identical values can stand only once. Like-named read-outs stand apart in the source and are kept apart here.

`COc1ccc(COc2cc3oc(=O)c4cc(C(C)O)ccc4c3cc2OC)cc1` (stereo not shown) [palomid 529, 8-(1-hydroxy-ethyl)-2-methoxy-3-(4-methoxy-benzyloxy)-benzo[c]chromen-6-one]: the “potency as inhibitor of VEGF-induced proliferation relative to the other compounds tested” value in series [1] is given as “less potent inhibitors of VEGF-induced proliferation than the other compounds tested”.

For `C=CC[C@@H]1/C=C(\C)C[C@H](C)C[C@H](OC)[C@H]2O[C@@](O)(C(=O)C(=O)N3CCCC[C@H]3C(=O)O[C@H](/C(C)=C/[C@@H]3CC[C@@H](O)[C@H](OC)C3)[C@H](C)[C@@H](O)CC1=O)[C@H](C)C[C@@H]2OC` [tacrolimus], in series [1], the “potency as inhibitor of VEGF-induced proliferation relative to the other compounds tested” value is recorded as “less potent inhibitors of VEGF-induced proliferation than the other compounds tested” and the IC50 (in general, the concentration that inhibits the measured activity by half) worked out at 324000 nM.

For `CO[C@H]1C[C@@H]2CC[C@@H](C)[C@@](O)(O2)C(=O)C(=O)N2CCCC[C@H]2C(=O)O[C@H]([C@H](C)C[C@@H]2CC[C@@H](OCCO)[C@H](OC)C2)CC(=O)[C@H](C)/C=C(\C)[C@@H](O)[C@@H](OC)C(=O)[C@H](C)C[C@H](C)/C=C/C=C/C=C/1C` [everolimus], in series [2] (literature values), the “Solubility, Aqueous” value was 1 to 10.0 µg/mL; the “Solubility, DMSO” value was greater than 100 mg/mL; the “Solubility, Ethanol” value was greater than 100 mg/mL. The same compound had an IC50 in series [1] of 22.4 nM. In addition, in series [3], the “Solubility, PEG 400” value is greater than 624 mg/g and the “physical state when formulated in PEG400” value was “went into solution”.

For `CO[C@H]1C[C@@H]2CC[C@@H](C)[C@@](O)(O2)C(=O)C(=O)N2CCCC[C@H]2C(=O)O[C@H]([C@H](C)C[C@@H]2CC[C@@H](O)[C@H](OC)C2)CC(=O)[C@H](C)/C=C(\C)[C@@H](O)[C@@H](OC)C(=O)[C@H](C)C[C@H](C)/C=C/C=C/C=C/1C` [sirolimus, rapamycin], in the series “in vivo” (1 day), the “Rapamycin level, Blood” value was 2.84 ng/mL. Further, the “Rapamycin level, Blood” value in the series “in vivo” (3 day) is 27.29 ng/mL. In “in vivo” (Rapamycin level, Blood), this compound came in with a concentration at 1 day of 4.63 ng/mL, a concentration at 3 day of 37.1 ng/mL, a concentration at 8 day of 15.5 ng/mL and a concentration at 10 day of 7.67 ng/mL. In the series “in vivo” (Rapamycin level, Blood), this compound had a concentration at 12 day of 2.88 ng/mL and a concentration at 14 day of 48.3 ng/mL. Moreover, in the series “in vivo” (Rapamycin level, Cornea), the concentration at 8 day was 169 ng/g, the concentration at 10 day turned out to be 110 ng/g, the concentration at 12 day was found to be 97.9 ng/g and the concentration at 14 day was determined as 84.2 ng/g. Also, in series [4], the “concentration remaining in the vitreous after a single injection” value is “Sustained concentrations”. The “Solubility, Ethanol” value in series [2] (literature value) is greater than 90 mg/g. Further, the “Solubility, Aqueous” value in series [2] (literature values) is 1 to 2.6 µg/mL. Moreover, half-maximal inhibition in series [1] (IC50) required 29.5 nM. For the same compound, in series [3], the “Solubility, DMSO” value was greater than 472 mg/g; the “Solubility, PEG 400” value was determined as 3 mg/g; the “physical state when formulated in PEG400” value was “suspension”.

In the case of `CO[C@H]1C[C@@H]2CC[C@@H](C)[C@@](O)(O2)C(=O)C(=O)N2CCCC[C@H]2C(=O)O[C@H]([C@H](C)C[C@@H]2CC[C@@H](OC(=O)C(C)(CO)CO)[C@H](OC)C2)CC(=O)[C@H](C)/C=C(\C)[C@@H](O)[C@@H](OC)C(=O)[C@H](C)C[C@H](C)/C=C/C=C/C=C/1C` [temsirolimus], in series [2] (literature values), the “Solubility, Aqueous” value was 10 to 20 µg/mL; the “Solubility, DMSO” value is greater than 200 mg/mL; the “Solubility, Ethanol” value was greater than 200 mg/mL. Also, the IC50 in series [1] is 15.9 nM.

Consider `CC(C)n1nc(-c2cc3cc(O)ccc3[nH]2)c2c(N)ncnc21` [PP242, 2-(4-Amino-1-isopropyl-1H-pyrazolo[3,4-d]pyrimidin-3-yl)-1H-indol-5-ol], for which the “Solubility, PEG 400” value in series [3] was greater than 126 mg/g.

As to `CO[C@H]1C[C@@H]2CC[C@@H](C)[C@@](O)(O2)C(=O)C(=O)N2CCCC[C@H]2C(=O)O[C@H]([C@H](C)C[C@@H]2CC[C@H](n3cnnn3)[C@H](OC)C2)CC(=O)[C@H](C)/C=C(\C)[C@@H](O)[C@@H](OC)C(=O)[C@H](C)C[C@H](C)/C=C/C=C/C=C/1C` [zotarolimus], in series [5], the “inhibition of neovascular disease (fluorescein angiography grading)” value is “inhibited neovascular disease to a greater extent than a 50 microliter dose of AVASTIN”. In addition, in series [2] (literature values), the “Solubility, DMSO” value is greater than 1 mg/mL and the “Solubility, Ethanol” value is greater than 100 mg/mL. Besides, the “Solubility, Aqueous” value in series [2] (pH 6.5, literature value) is given as 0.47 mcg/ml* pH 6.5. In addition, the “Solubility, Aqueous” value in series [2] (pH 7.4, literature value) was 0.53 mcg/ml* pH 7.4. Further, in series [1], 1.78 nM corresponded to half-maximal inhibition (IC50).

Turning to `CC(C)n1nc(-c2cccc(C(=O)NC3=NCCS3)c2)c2c(N)ncnc21` [PP30], the “Solubility, PEG 400” value in series [3] is >13 mg/g and <22 mg/g.
